Source: patent US8598084B2, “Synergistic herbicide/insecticide composition containing certain pyridine carboxylic acids and certain insecticides” (priority 2010, dated 2013)

Assays:
Assay type in all cases: in vivo
[1] = tested on: kochia (Kochia scoparia L; KCHSC); experiment: Postemergence herbicidal activity of mixtures, greenhouse, visual injury vs control
Protocol: (§1) Evaluation of Postemergence Herbicidal Activity of Mixtures in Cereal Crops
(§2) Seeds of the desired test plant species were planted in Sun Gro MetroMix® 306 planting mixture, which typically has a pH of 6.0 to 6.8 and an organic matter content of about 30 percent, in plastic pots with a surface area of 103.2 square centimeters (cm^2). When required to ensure good germination and healthy plants, a fungicide treatment and/or other chemical or physical treatment was applied. The plants were grown for 7-36 days (d) in a greenhouse with an approximate 14 hour (h) photoperiod which was maintained at about 18° C. during the day and 17° C. during the night. Nutrients and water were added on a regular basis and supplemental lighting was provided with overhead metal halide 1000-Watt lamps as necessary. The plants were employed for testing when they reached the second or third true leaf stage.
(§3) Treatments consisted of an insecticidal compound (as listed in Tables 1 through 18) and the cereal herbicide, 4-amino-3-chloro-6-(4-chloro-2-fluoro-3-methoxyphenyl)pyridine-2-carboxylic acid, alone and in combination. Weighed amounts of esters (methyl) or salts (triethylammonium, TEA) of 4-amino-3-chloro-6-(4-chloro-2-fluoro-3-methoxyphenyl)pyridine-2-carboxylic acid (Compound I) were placed in 25 milliliter (mL) glass vials and dissolved in a volume of 97:3 volume per volume (v/v) acetone/dimethyl sulfoxide (DMSO) to obtain 4.5 milligrams active ingredient per mL (mg ai/mL) concentrated solutions. […] The concentrated solutions of Compound I were diluted to 1.5 mg ai/mL with the addition of 2 volumes of an aqueous mixture containing acetone, water, isopropyl alcohol, DMSO, Agri-dex crop oil concentrate, and Triton® X-77 surfactant in a 64.7:26.0:6.7:2.0:0.7:0.01 v/v ratio. A dilution solution was prepared by mixing 1 volume of 97:3 v/v acetone/DMSO and 2 volumes of an aqueous mixture containing acetone, water, isopropyl alcohol, DMSO, Agri-dex crop oil concentrate, and Triton® X-77 surfactant in a 64.7:26.0:6.7:2.0:0.7:0.01 v/v ratio. Compound requirements are based upon a 12 mL application volume at a rate of 187 liters per hectare (L/ha). The concentrated solutions of the cereal insecticides were prepared following the same procedure. Weighed amounts of insecticide were placed in 25 milliliter (mL) glass vials and dissolved in a volume of 97:3 v/v acetone/DMSO to obtain concentrated insecticide solutions. The concentrated solutions of the safener were prepared following the same procedure. Weighed amounts of safener were placed in 25 mL glass vials and dissolved in a volume of 97:3 v/v acetone/DMSO to obtain concentrated safener solutions. The concentrated solutions were diluted to 0.75 mg/mL with an aqueous mixture of 1.5% v/v of Agri-dex crop oil concentrate.
(§4) Spray solutions of the cereal herbicide and the insecticidal compound mixtures were prepared by adding the concentrated solutions to the appropriate amount of dilution solution to form 12 mL spray solution with active ingredients in combinations. Spray solutions of the cereal herbicide, herbicide safener and the insecticidal compound mixtures were prepared by adding the concentrated solutions to the appropriate amount of dilution solution to form 12 mL spray solution with active ingredients in combinations. Formulated compounds were applied to the plant material with an overhead Mandel track sprayer equipped with 8002E nozzles calibrated to deliver 187 L/ha over an application area of 0.503 square meters (m^2) at a spray height of 18 inches […] above average plant canopy. Control plants were sprayed in the same manner with the solvent blank.
(§5) The treated plants and control plants were placed in a greenhouse as described above and watered by sub-irrigation to prevent wash-off of the test compounds. […]

[2] = tested on: bird's-eye speedwell (Veronica persica L; VERPE); experiment: as above; details: for pest or weed control at 1.25 g/ha: 1.25 g/ha alone;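 as to all read-outs here: visual score 0 means no injury and 100 means complete kill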
Protocol: as §1, §2, §3, §4, §5

[3] = tested on: wild pansy (Viola tricolor L; VIOTR); experiment: as above; details: for pest or weed control at 1.25 g/ha: 1.25 g/ha alone
Protocol: as §1, §2, §3, §4, §5

[4] = tested on: Russian thistle (Salsola iberica L; SASKR); experiment: as above; details: for pest or weed control at 1.25 g/ha: 1.25 g/ha alone
Protocol: as §1, §2, §3, §4, §5

[5] = tested on: wheat (Triticum aestivum L; TRZAS); experiment: Postemergence crop injury and safening, greenhouse, visual injury vs control; details: crop injury
Protocol: as §1, §2, §3, §4, §5

[6] = tested on: barley (Hordeum vulgare L; HORVS); experiment: as above; details: crop injury
Protocol: as §1, §2, §3, §4, §5

[7] = tested on: scented mayweed (Matricaria chamomila L; MATCH); experiment: Postemergence herbicidal activity of mixtures, greenhouse, visual injury vs control
Protocol: as §1, §2, §3, §4, §5

[8] = tested on: Canada thistle (Cirsium arvense L; CIRAR); experiment: as above; details: 48 g/ha alone
Protocol: as §1, §2, §3, §4, §5

[9] = tested on: redroot pigweed (Amaranthus retroflexus L; AMARE); experiment: as above; details: 48 g/ha alone
Protocol: as §1, §2, §3, §4, §5

[10] = Bassia scoparia, post-emergence, 35 g/ha alone, read-out: Ob (observed injury)
[11] = Veronica persica, post-emergence, 35 g/ha alone, read-out: Ob (observed injury)
[12] = Viola tricolor, post-emergence, 35 g/ha alone, read-out: Ob (observed injury)
[13] = Salsola tragus, post-emergence, 35 g/ha alone, read-out: Ob (observed injury)
[14] = Veronica persica, post-emergence, read-out: Ob (observed injury)
[15] = Viola tricolor, post-emergence, read-out: Ob (observed injury)
[16] = Salsola tragus, post-emergence, read-out: Ob (observed injury)

COc1c(Cl)ccc(-c2cc(N)c(Cl)c(C(=O)O)n2)c1F [Compound I Acid, 4-Amino-3-chloro-6-(4-chloro-2-fluoro-3-methoxyphenyl)pyridine-2-carboxylic acid]
pest or weed control at 35 g/ha [1, 10]: 98%
pest or weed control at 35 g/ha [2, 11]: 72%
pest or weed control at 35 g/ha [3, 12]: 60%
pest or weed control at 35 g/ha [4, 13]: 89%
Ob (observed injury) ([5]; 35 g/ha alone): 22%
Ob (observed injury) ([6]; 35 g/ha alone): 15%

CCOP(=S)(OCC)Oc1nc(Cl)c(Cl)cc1Cl [Chlorpyrifos, O,O-diethyl O-(3,5,6-trichloro-2-pyridinyl) phosphorothioate, reference compound]
pest or weed control at 60 g/ha ([1]; Bassia scoparia, post-emergence, 60 g/ha alone, read-out: Ob (observed injury)): 0%
pest or weed control at 60 g/ha ([7]; Matricaria, post-emergence, 60 g/ha alone, read-out: Ob (observed injury)): 0%
pest or weed control at 60 g/ha ([2]; Veronica persica, post-emergence, 60 g/ha alone, read-out: Ob (observed injury)): 0%
pest or weed control at 60 g/ha ([3]; Viola tricolor, post-emergence, 60 g/ha alone, read-out: Ob (observed injury)): 0%
pest or weed control at 60 g/ha ([4]; Salsola tragus, post-emergence, 60 g/ha alone, read-out: Ob (observed injury)): 0%

CC1(C)C(C=C(Cl)Cl)C1C(=O)OC(C#N)c1ccc(F)c(Oc2ccccc2)c1 (stereo not drawn) [Cyfluthrin, cyano(4-fluoro-3-phenoxyphenyl)methyl 3-(2,2-dichloroethenyl)-2,2-dimethylcyclopropanecarboxylate, reference compound]
pest or weed control at 3.75 g/ha ([1]; Bassia scoparia, post-emergence, 3.75 g/ha alone, read-out: Ob (observed injury)): 0%
pest or weed control at 3.75 g/ha ([7]; Matricaria, post-emergence, 3.75 g/ha alone, read-out: Ob (observed injury)): 0%
pest or weed control at 3.75 g/ha ([3]; Viola tricolor, post-emergence, 3.75 g/ha alone, read-out: Ob (observed injury)): 0%
pest or weed control at 3.75 g/ha ([4]; Salsola tragus, post-emergence, 3.75 g/ha alone, read-out: Ob (observed injury)): 0%

CC1(C)[C@H](C(=O)O[C@H](C#N)c2cccc(Oc3ccccc3)c2)[C@@H]1C=C(Br)Br [Deltamethrin, (S)-cyano(3-phenoxyphenyl)methyl (1R,3R)-3-(2,2-dibromoethenyl)-2,2-dimethylcyclopropanecarboxylate, reference compound]
pest or weed control at 1.25 g/ha ([1]; Bassia scoparia, post-emergence, 1.25 g/ha alone, read-out: Ob (observed injury)): 0%
pest or weed control at 1.25 g/ha ([7]; Matricaria, post-emergence, 1.25 g/ha alone, read-out: Ob (observed injury)): 0%
pest or weed control at 1.25 g/ha [2, 14]: 0%
pest or weed control at 1.25 g/ha [3, 15]: 0%
pest or weed control at 1.25 g/ha [4, 16]: 0%

Cc1c(COC(=O)[C@@H]2[C@H](/C=C(\Cl)C(F)(F)F)C2(C)C)cccc1-c1ccccc1 (relative stereo) [Bifenthrin, (2-methyl[1,1′-biphenyl]-3-yl)methyl (1R,3R)-rel-3-[(1Z)-2-chloro-3,3,3-trifluoro-1-propenyl]-2,2-dimethylcyclopropanecarboxylate, reference compound]
pest or weed control at 1.6 g/ha ([7]; Matricaria, post-emergence, 1.6 g/ha alone, read-out: Ob (observed injury)): 0%
pest or weed control at 1.6 g/ha ([2]; Veronica persica, post-emergence, 1.6 g/ha alone, read-out: Ob (observed injury)): 0%
pest or weed control at 1.6 g/ha ([3]; Viola tricolor, post-emergence, 1.6 g/ha alone, read-out: Ob (observed injury)): 0%
pest or weed control at 1.6 g/ha ([4]; Salsola tragus, post-emergence, 1.6 g/ha alone, read-out: Ob (observed injury)): 0%

CNC(=O)CSP(=S)(OC)OC [Dimethoate, O,O-dimethyl S-[2-(methylamino)-2-oxoethyl]phosphorodithioate, reference compound]
pest or weed control at 170 g/ha ([1]; Bassia scoparia, post-emergence, 170 g/ha alone, read-out: Ob (observed injury)): 0%
pest or weed control at 170 g/ha ([2]; Veronica persica, post-emergence, 170 g/ha alone, read-out: Ob (observed injury)): 0%
pest or weed control at 170 g/ha ([3]; Viola tricolor, post-emergence, 170 g/ha alone, read-out: Ob (observed injury)): 0%
pest or weed control at 170 g/ha ([4]; Salsola tragus, post-emergence, 170 g/ha alone, read-out: Ob (observed injury)): 0%

CC1(C)[C@H](/C=C(\Cl)C(F)(F)F)[C@@H]1C(=O)O[C@@H](C#N)c1cccc(Oc2ccccc2)c1 (relative stereo) [λ-Cyhalothrin, (R)-cyano(3-phenoxyphenyl)methyl (1S,3S)-rel-3-[(1Z)-2-chloro-3,3,3-trifluoro-1-propenyl]-2,2-dimethylcyclopropanecarboxylate]
pest or weed control at 1.25 g/ha [2, 14]: 0%
pest or weed control at 1.25 g/ha [3, 15]: 0%
pest or weed control at 1.25 g/ha [4, 16]: 0%

Cc1nc(N(C)C)nc(OC(=O)N(C)C)c1C [Pirimicarb, 2-(dimethylamino)-5,6-dimethyl-4-pyrimidinyl dimethylcarbamate, reference compound]
pest or weed control at 35 g/ha [1, 10]: 0%
pest or weed control at 35 g/ha ([7]; Matricaria, post-emergence, 35 g/ha alone, read-out: Ob (observed injury)): 0%
pest or weed control at 35 g/ha [2, 11]: 0%
pest or weed control at 35 g/ha [3, 12]: 0%
pest or weed control at 35 g/ha [4, 13]: 0%

N#CCNC(=O)c1cnccc1C(F)(F)F [Flonicamid, N-(cyanomethyl)-4-(trifluoromethyl)-3-pyridinecarboxamide]
pest or weed control at 17.5 g/ha ([7]; Matricaria, post-emergence, 17.5 g/ha alone, read-out: Ob (observed injury)): 0%
pest or weed control at 17.5 g/ha ([3]; Viola tricolor, post-emergence, 17.5 g/ha alone, read-out: Ob (observed injury)): 0%
pest or weed control at 17.5 g/ha ([4]; Salsola tragus, post-emergence, 17.5 g/ha alone, read-out: Ob (observed injury)): 0%

CCN(CC)CC.COc1c(Cl)ccc(-c2cc(N)c(Cl)c(C(=O)O)n2)c1F [Compound I TEA salt]
Ob (observed injury) ([1]; 8.75 g/ha alone): 40%
Ob (observed injury) ([1]; 17.5 g/ha alone): 55%
Ob (observed injury) ([1]; 35 g/ha alone): 65%
Ob (observed injury) ([7]; 8.75 g/ha alone): 40%
Ob (observed injury) ([7]; 17.5 g/ha alone): 67%
Ob (observed injury) ([7]; 35 g/ha alone): 73%
Ob (observed injury) ([2]; 8.75 g/ha alone): 10%
Ob (observed injury) ([2]; 17.5 g/ha alone): 40%
Ob (observed injury) ([2]; 35 g/ha alone): 70%
Ob (observed injury) ([3]; 8.75 g/ha alone): 23%
Ob (observed injury) ([3]; 17.5 g/ha alone): 40%
Ob (observed injury) ([3]; 35 g/ha alone): 47%
Ob (observed injury) ([4]; 8.75 g/ha alone): 80%
Ob (observed injury) ([4]; 17.5 g/ha alone): 84%
Ob (observed injury) ([4]; 35 g/ha alone): 86%

CCOC(=O)CC(SP(=S)(OC)OC)C(=O)OCC (stereo not drawn) [Malathion, diethyl[(dimethoxythiophosphinothioyl)thio]butanedioate, reference compound]
pest or weed control at 280 g/ha ([1]; Bassia scoparia, post-emergence, 280 g/ha alone, read-out: Ob (observed injury)): 0%
pest or weed control at 280 g/ha ([7]; Matricaria, post-emergence, 280 g/ha alone, read-out: Ob (observed injury)): 0%
pest or weed control at 280 g/ha ([3]; Viola tricolor, post-emergence, 280 g/ha alone, read-out: Ob (observed injury)): 0%
pest or weed control at 1120 g/ha ([3]; Viola tricolor, post-emergence, 1120 g/ha alone, read-out: Ob (observed injury)): 0%
pest or weed control at 280 g/ha ([4]; Salsola tragus, post-emergence, 280 g/ha alone, read-out: Ob (observed injury)): 0%
Ob (observed injury) ([5]; 280 g/ha alone): 0%
Ob (observed injury) ([5]; 1120 g/ha alone): 0%
Ob (observed injury) ([6]; 280 g/ha alone): 0%
Ob (observed injury) ([6]; 1120 g/ha alone): 0%

CC(C)[C@@H](Nc1ccc(C(F)(F)F)cc1Cl)C(=O)OC(C#N)c1cccc(Oc2ccccc2)c1 (stereo partly drawn) [Tau-fluvalinate, cyano(3-phenoxyphenyl)methyl N-[2-chloro-4-(trifluoromethyl)phenyl]-D-valinate, reference compound]
pest or weed control at 48 g/ha ([3]; Viola tricolor, post-emergence, 48 g/ha alone, read-out: Ob (observed injury)): 0%
Ob (observed injury) [8]: 0%
Ob (observed injury) [9]: 0%
